Source: US20100167265A1, “VACCINE AGAINST INFECTIOUS AGENTS HAVING AN INT[…], COMPOSITION FOR THE TREATMENT AND PREVENTION OF HIV INFECTIONS, ANTIBODIES AND METHOD OF DIAGNOSIS” (INSTITUT NATIONAL de la SANTE ET DE LA RECHERCHE MEDICALE …, priority 1995, published 2010)

Columns and labels:
[1] = system: B1G6 monoclonal antibody; assay: Effect of selected peptides on the neutralization of HIV-1 NDK by B1G6 monoclonal antibody on PBLs; format: cell-based; details: peptide 100 or 50 μg/ml; B1G6 5 μg/ml
Protocol: The peptides at a concentration of 100 μg/ml or 50 μg/ml (40 μl or 20 μl of the stock solution and 5 mg/ml) are preincubated with 5 μg/ml of B1G6 (10 μl of a stock solution at 1 mg/ml) in a total volume of 110 μl for 2 hours, in tubes on a water bath at 37° C., with gentle stirring. Next, HIV-1 NDK is added (100 μl of a 2×10^−4 dilution of a stock solution and the tubes are incubated for 1 hour at 37° C. on a water bath. The tubes are then separated into two and each 100 μl is added to 10^6 PBLs on a 24-well plate. The cells are cultured for 3 days at 37° C. under an atmosphere with 5% CO2. On day 3, the cells are washed, placed in culture and propagated for at least 20-25 days in a 25 cm^3 round-bottomed flask. The production of virus is monitored every 3 or 4 days by the assay of reverse transcriptase (RT).

[2] = target: T1, R7V (Homo sapiens, UniProt P61769); assay: Immune response of rabbits immunized with peptide-KLH, serum ELISA on peptide; format: in vivo, rabbit
T1 construct: The peptide R7V (RTPKIQV) was extended by 2 amino acids in order to allow the coupling
Protocol: The peptide antigen 7AA is coupled to KLH (Keyhole Limpet Hemocyanin) and injected into rabbits in the presence of complete Freund's adjuvant.
The animals are immunized in the presence of complete Freund's adjuvant at D0, D14, D28, D42 and trial bleedings are carried out before immunization on days 35, 49, 56 and 70.
The peptides used are: RV7-KLH, S7K-KLH and F7E-KLH
The peptide R7V (RTPKIQV) was extended by 2 amino acids in order to allow the coupling. The structure used as immunogen is […].
The antibodies of the rabbits immunized 618 were measured by ELISA, where the peptide coupled to various carrier proteins was used at the bottom of the well (either coupled to KLH, to BSA (Bovine Serum Albumin) or MAP (Multiple Antigenic Peptide)).
The diagrams represent the results obtained at 2 dilutions d100 and d1000, that is to say a 1/100 and 1/1000 dilution of the sera, or at different times. […]
→(Ag)final=1 μg/ml • distribute 100 μl/well, that is to 100 ng/well • incubate 2 h at 37° C. or overnight at 4° C. […] (in a humid atmosphere). • 8) Washes (identical to point 2) • 9) Visualization with OPD • dissolve 10 mg OPD in 25 ml of phosphocitrate buffer (0.1 M, pH 5.5) • add at the last moment 10 μl H2O2 • distribute 100 μl/well and incubate 30 min in the dark at room temperature (may be read at 405 nm) • stop the reaction with 50 μl H2SO4 12.5 k. • 10) Reading at 492 nm.

TLSRTPKIQV [compound 185]
canceling of the neutralizing effect of B1G6 on the production of HIV-1 NDK by the PBLs [1]: lost the canceling effect

IQRTPQIVKW [compound 189]
canceling of the neutralizing effect of B1G6 on the production of HIV-1 NDK by the PBLs [1]: lost the canceling effect

FHPSDIE [F7E]
canceling of the neutralizing effect of B1G6 on the production of HIV-1 NDK by the PBLs [1]: can cancel the neutralizing effect

RTPKIQV [R7V]
immune response generated [2]: good immune response
canceling of the neutralizing effect of B1G6 on the production of HIV-1 NDK by the PBLs [1]: can cancel the neutralizing effect

IQRTPNIVKW [compound 190]
canceling of the neutralizing effect of B1G6 on the production of HIV-1 NDK by the PBLs [1]: lost the canceling effect
